From ChEMBL document CHEMBL4033766, “Discovery of the Antitumor Effects of a Porphyrazine Diol (Pz 285) in MDA-MB-231 Breast Tumor Xenograft Models in Mice” (ACS Med Chem Lett, 2017)
The source made the active and inactive calls. The calls are words filed in the database; no cut-off is given here.

Tests used:
[1] = Antiproliferative activity against human MDA-MB-231-LM24 cells after 48 hrs by MTS assay; assay type: functional, cell-based; settings: MDA-MB-231-LM24, 48 h
[2] = Antitumor activity against Her2-positive human MDA-MB-231-LM24 cells xenografted in SCID-beige mouse harboring Td-tomato and Luc2 assessed as survival days at 2.5 mg/kg, iv administered every 7 days for 28 days (reference value: 9.5 days); assay type: functional
[3] = test system: MDA-MB-231-LM24; assay: Antimetastatic activity against Her2-positive human MDA-MB-231-LM24 cells xenografted in SCID-beige mouse harboring Luc2 assessed as reduction in tumor burden in lung at 2.5 mg/kg, iv administered every 7 days for 2 weeks by bioluminescence analysis; assay type: functional, organism-based
[4] = Antitumor activity against Her2-positive human MDA-MB-231-LM24 cells xenografted in SCID-beige mouse harboring Td-tomato and Luc2 assessed as tumor growth inhibition at 2.5 mg/kg, iv administered every 7 days for 28 days relative to control; assay type: functional; settings: MDA-MB-231-LM24, iv, read-out: TGI
[5] = test system: MDA-MB-231; assay: Antiproliferative activity against human MDA-MB-231 cells at 25 uM after 48 hrs by MTS assay relative to control; assay type: functional
[6] = Antitumor activity against Her2-positive human MDA-MB-231-LM24 cells xenografted in SCID-beige mouse harboring Td-tomato and Luc2 assessed as survival days at 1.25 mg/kg, iv administered every 7 days for 28 days (reference value: 9.5 days); assay type: functional

SMILES	IC50 [1] [µM]	Survival [2] [days]	Activity [3]	inhibition in vivo at 2.5 mg/kg [4] [%]	Activity [5]	Survival [6] [days]
CO[C@]1(C)OC2=C(O[C@@]1(C)OC)c1nc2nc2[nH]c(nc3nc(nc4[nH]c(n1)c1c4O[C@@](C)(OC)[C@](C)(OC)O1)-c1c(OCCO)ccc(OCCO)c1-3)c1c2O[C@@](C)(OC)[C@](C)(OC)O1	15	22.5	Active	> 65	40%	
COc1cccc2c1C(=O)c1c(O)c3c(c(O)c1C2=O)C[C@@](O)(C(=O)CO)C[C@@H]3O[C@H]1C[C@H](N)[C@H](O)[C@H](C)O1 [DOXORUBICIN]		14				20
CO[C@]1(C)OC2=C(O[C@@]1(C)OC)c1nc2nc2[nH]c(nc3nc(nc4[nH]c(n1)c1c4O[C@@](C)(OC)[C@](C)(OC)O1)C1=C3O[C@@](C)(OC)[C@](C)(OC)O1)c1c2O[C@@](C)(OC)[C@](C)(OC)O1					inactive	
